Reference: patent US20260166046A1, “Inhibitors of methionine aminopeptidase-2 and methods of preparation and uses thereof” (Primetime Life Sciences LLC, priority 2022, published 2026)
Read-outs that look alike come from different tables or passages of the source.

Key:
Recombinant human MetAP2 = molecular target: T1, Recombinant human MetAP2 (Homo sapiens, UniProt P50579); assay: MetAP2 fluorescence assay; assay type: biochemical; details: recombinant human MetAP2, H-Met-Gly-Pro-AMC substrate
T1 construct: purchased Bio-Techne/R&D systems
Description: MetAP2 Fluorescence Assay
Recombinant human MetAP2 (Bio-Techne/R&D systems) was diluted to 10 μg/mL in the assay buffer (50 mM HEPES, 0.1 mM CoCl2, 100 mM NaCl, pH 7.5). The substrate, H-Met-Gly-Pro-AMC (Bio-Techne/R&D systems), was diluted to 500 μM with 2 μg/mL of the coupling enzyme, recombinant human dipeptidyl peptidase-4 (Bio-Techne/R&D systems), in assay buffer. 50 μL of 10 μg/mL recombinant human METAP2 were loaded into a flat-bottom black 96-well plate (Greiner Bio), and the reaction was initiated by adding 50 μL of the substrate/dipeptidyl peptidase-4 mixture. The reaction mixture was incubated at room temperature for 10 minutes, and the fluorescence was measured for 5 minutes at excitation and emission wavelengths of 380 nm and 460 nm, respectively, in kinetic mode. For IC50determination, 0.5 μL inhibitor solution was added to the reaction mixture. The reaction rates were used to calculate IC50with KaleidaGraph.

G. lamblia GS = assay: Trophozoite viability IC50 determination, Giardia assay (ATPLite); assay type: cell-based; details: Giardia duodenalis, read-out: Cell viability values Mean IC50 (nM) G. lamblia GS
Description: (§1) Giardia cultures: Trophozoites of G. lamblia isolates WB and GS were grown anaerobically in borosilicate glass screw-cap culture tubes (Fisher Scientific) at pH 7.0 in modified TYI-S-33 medium. The medium was supplemented with 10% heat-inactivated bovine serum (Sigma-Aldrich) and 0.05% bovine bile (Sigma-Aldrich). To attain low-oxygen-tension conditions, the tubes were filled to 85 to 90% of their total volume capacity and incubated without shaking at 37° C. Subcultures (2×10^5 trophozoites per tube) were made three times a week. Detachment of trophozoites for inoculation was achieved by chilling the cultures on ice for 20 min. Culturing and detachment of Metronidazole-resistant G. lamblia Assemblage A 713M3 and assemblage B 1279-M1 trophozoites followed the same protocol, except that the growth medium was supplemented with metronidazole gradually increasing the concentration to 10 μM. Amebae cultures: E. histolytica strain HM1:IMSS trophozoites were grown at 37° C. in TYI-S-33 medium supplemented with penicillin (100 U/mL) and streptomycin sulfate (100 μg/mL). Trophozoites were grown anaerobically in borosilicate tubes and subcultures were made 1-2 times a week. Trophozoites were detached for inoculation by chilling the cultures on ice for 20 minutes.
(§2) Trophozoite viability IC50determination
(§3) Giardia assays: 10 μL giardia trophozoites in growth medium were plated at a density of 10,000 cells/well in sterile 96-well black clear bottom assay plates. Fumagillin and fumagillol derivatives were 1:3 serially diluted from a 1 μM DMSO stock solution and then 100 μL/well were transferred in duplicate to the assay wells. Metronidazole (control) was 1:3 serially diluted in growth medium from a 100 μM stock solution in DMSO. The assay plates were placed in a BD GasPak™ EZ Container System (BD Diagnostics) to create an anaerobic growth environment. The sealed containers were incubated at 37° C. for 72 hr. Following incubation, 70 μL/well of the ATPLite reagent (PerkinElmer) was added to the assay plates for one-step lysis and ATP level detection. The luminescent signals of the assay plates were measured on an EnSpire 2300 plate reader (PerkinElmer). Concentration response titration points for each compound were fitted to a 4-parameters logistic nonlinear regression model using KaleidaGraph, yielding the IC50value and standard error (SE).

G. lamblia WB = assay: as above; assay type: cell-based; details: Giardia duodenalis, read-out: Cell viability values Mean IC50 (nM) G. lamblia WB
Description: as §1, §2, §3

E. histolytica HM1: IMSS = assay: Trophozoite viability IC50 determination, Amebae assay (ATPLite); assay type: cell-based; details: Entamoeba histolytica, read-out: Cell viability values Mean IC50 (nM) E. histolytica HM1: IMSS
Description: as §1, §2, §3
Amebae assays: The protocol is identical to that described above except that the trophozoites were plated at a density of 5000 cells/well because of their larger size.

[1] = trophozoites, 72 hr, anaerobic, ATP level

T1 sequence (P50579 whole entry): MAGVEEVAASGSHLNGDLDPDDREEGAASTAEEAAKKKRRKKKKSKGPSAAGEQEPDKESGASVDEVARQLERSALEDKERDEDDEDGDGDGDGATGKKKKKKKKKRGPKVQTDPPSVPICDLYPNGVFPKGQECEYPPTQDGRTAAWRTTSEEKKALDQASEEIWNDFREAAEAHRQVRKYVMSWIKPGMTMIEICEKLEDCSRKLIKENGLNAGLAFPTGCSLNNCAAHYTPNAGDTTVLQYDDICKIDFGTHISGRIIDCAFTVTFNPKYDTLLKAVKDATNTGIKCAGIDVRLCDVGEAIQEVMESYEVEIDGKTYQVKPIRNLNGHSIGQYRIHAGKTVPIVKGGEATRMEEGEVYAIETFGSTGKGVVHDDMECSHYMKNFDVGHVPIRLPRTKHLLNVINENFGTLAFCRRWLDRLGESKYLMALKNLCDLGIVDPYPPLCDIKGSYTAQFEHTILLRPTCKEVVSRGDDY

SMILES | IC50 (Recombinant human MetAP2) [µM] | IC50 (G. lamblia GS; 72 h) [nM] | IC50 (G. lamblia WB; 72 h) [nM] | IC50 (E. histolytica HM1: IMSS; 72 h) [nM] | IC50 (G. lamblia GS; [1]) [nM] | IC50 (G. lamblia WB; [1]) [nM] | IC50 (E. histolytica HM1: IMSS; [1]) [nM]
CO[C@@H]1[C@H](OC(=O)N[C@@H](C)B(O)O)CC[C@]2(CO2)[C@H]1[C@@]1(C)O[C@@H]1CC=C(C)C [No 69] | < 0.01 | 10.1 to 100 | > 1000 | > 1000 | – | – | –
CO[C@@H]1[C@H](OC(=O)Nc2cc(C)cc(B(O)O)c2)CC[C@]2(CO2)[C@H]1[C@@]1(C)O[C@@H]1CC=C(C)C [No 28] | < 0.01 | 10.1 to 100 | 101 to 1000 | 101 to 1000 | – | – | –
CO[C@@H]1[C@H](OC(=O)Nc2cc(B(O)O)cc(F)n2)CC[C@]2(CO2)[C@H]1[C@@]1(C)O[C@@H]1CC=C(C)C [No 50] | < 0.01 | 10.1 to 100 | > 1000 | > 1000 | – | – | –
CO[C@@H]1[C@H](OC(=O)Nc2cc(C#N)cc(B(O)O)c2)CC[C@]2(CO2)[C@H]1[C@@]1(C)O[C@@H]1CC=C(C)C [No 25] | < 0.01 | 101 to 1000 | 101 to 1000 | > 1000 | – | – | –
CO[C@@H]1[C@H](OC(=O)Nc2ccc(F)c(F)c2B(O)O)CC[C@]2(CO2)[C@H]1[C@@]1(C)O[C@@H]1CC=C(C)C [No 34] | < 0.01 | – | – | – | 101 to 1000 | > 1000 | > 1000
CO[C@@H]1[C@H](OC(=O)Nc2ccc(B(O)O)c(C(C)C)c2)CC[C@]2(CO2)[C@H]1[C@@]1(C)O[C@@H]1CC=C(C)C [No 62] | < 0.01 | 101 to 1000 | > 1000 | > 1000 | – | – | –
CO[C@@H]1[C@H](OC(=O)N2CC=C(B(O)O)CC2)CC[C@]2(CO2)[C@H]1[C@@]1(C)O[C@@H]1CC=C(C)C [No 53] | < 0.01 | 101 to 1000 | > 1000 | > 1000 | – | – | –
CO[C@@H]1[C@H](OC(=O)Nc2ccc(B(O)O)cc2)CC[C@]2(CO2)[C@H]1[C@@]1(C)O[C@@H]1CC=C(C)C [No 17] | < 0.01 | – | – | – | < 10 | 10.1 to 100 | 10.1 to 100
CO[C@@H]1[C@H](OC(=O)N(C)c2cc(B(O)O)c3occc3c2)CC[C@]2(CO2)[C@H]1[C@@]1(C)O[C@@H]1CC=C(C)C [No 54] | < 0.01 | 101 to 1000 | > 1000 | > 1000 | – | – | –
CO[C@@H]1[C@H](OC(=O)Nc2cc(B(O)O)c3occc3c2)CC[C@]2(CO2)[C@H]1[C@@]1(C)O[C@@H]1CC=C(C)C [No 49] | < 0.01 | 10.1 to 100 | 101 to 1000 | > 1000 | – | – | –
CO[C@@H]1[C@H](OC(=O)N(C)c2ccc3c(c2)B(O)OCC3)CC[C@]2(CO2)[C@H]1[C@@]1(C)O[C@@H]1CC=C(C)C [No 16] | < 0.01 | – | – | – | 101 to 1000 | 101 to 1000 | 101 to 1000
CO[C@@H]1[C@H](OC(=O)NCc2cccc(B(O)O)c2)CC[C@]2(CO2)[C@H]1[C@@]1(C)O[C@@H]1CC=C(C)C [No 29] | < 0.01 | 101 to 1000 | 101 to 1000 | 101 to 1000 | – | – | –
CO[C@@H]1[C@H](OC(=O)Nc2ccc3c(c2)B(O)OC3)CC[C@]2(CO2)[C@H]1[C@@]1(C)O[C@@H]1CC=C(C)C [No 6] | < 0.01 | < 10 | 10.1 to 100 | 10.1 to 100 | – | – | –
CO[C@@H]1[C@H](OC(=O)N(C)c2ccc3c(c2)CCOB3O)CC[C@]2(CO2)[C@H]1[C@@]1(C)O[C@@H]1CC=C(C)C [No 15] | < 0.01 | 101 to 1000 | 101 to 1000 | 101 to 1000 | – | – | –
CO[C@@H]1[C@H](OC(=O)N2CCCC2B(O)O)CC[C@]2(CO2)[C@H]1[C@@]1(C)O[C@@H]1CC=C(C)C (stereo partly drawn) [No 60] | < 0.01 | 10.1 to 100 | > 1000 | > 1000 | – | – | –
CO[C@@H]1[C@H](OC(=O)Nc2cc(Cl)c3c(c2)B(O)OC3)CC[C@]2(CO2)[C@H]1[C@@]1(C)O[C@@H]1CC=C(C)C [No 10] | < 0.01 | 10.1 to 100 | 10.1 to 100 | 10.1 to 100 | – | – | –
CO[C@@H]1[C@H](OC(=O)NC(CF)c2ccc(B(O)O)cc2)CC[C@]2(CO2)[C@H]1[C@@]1(C)O[C@@H]1CC=C(C)C (stereo partly drawn) [No 48] | < 0.01 | 101 to 1000 | > 1000 | > 1000 | – | – | –
CO[C@@H]1[C@H](OC(=O)Nc2ccccc2B(O)O)CC[C@]2(CO2)[C@H]1[C@@]1(C)O[C@@H]1CC=C(C)C [No 19] | < 0.01 | 10.1 to 100 | 101 to 1000 | 101 to 1000 | – | – | –
CO[C@@H]1[C@H](OC(=O)N[C@H](CC(C)C)B(O)O)CC[C@]2(CO2)[C@H]1[C@@]1(C)O[C@@H]1CC=C(C)C [No 68] | < 0.01 | 101 to 1000 | > 1000 | > 1000 | – | – | –
CO[C@@H]1[C@H](OC(=O)Nc2ccc3sc(B(O)O)cc3c2)CC[C@]2(CO2)[C@H]1[C@@]1(C)O[C@@H]1CC=C(C)C [No 38] | < 0.01 | > 1000 | > 1000 | > 1000 | – | – | –
CO[C@@H]1[C@H](OC(=O)Nc2ccc(Cl)c(B(O)O)c2F)CC[C@]2(CO2)[C@H]1[C@@]1(C)O[C@@H]1CC=C(C)C [No 64] | < 0.01 | – | – | – | 101 to 1000 | > 1000 | > 1000
CO[C@@H]1[C@H](OC(=O)Nc2ccc3c(c2)C(C)(C)OB3O)CC[C@]2(CO2)[C@H]1[C@@]1(C)O[C@@H]1CC=C(C)C [No 3] | < 0.01 | < 10 | < 10 | < 10 | – | – | –
CO[C@@H]1[C@H](OC(=O)Nc2cc(B(O)O)ccc2Cl)CC[C@]2(CO2)[C@H]1[C@@]1(C)O[C@@H]1CC=C(C)C [No 23] | < 0.01 | 101 to 1000 | 101 to 1000 | 101 to 1000 | – | – | –
CO[C@@H]1[C@H](OC(=O)Nc2ccc(B(O)O)c(F)c2)CC[C@]2(CO2)[C@H]1[C@@]1(C)O[C@@H]1CC=C(C)C [No 65] | < 0.01 | < 10 | 101 to 1000 | > 1000 | – | – | –
CO[C@@H]1[C@H](OC(=O)Nc2cc(B(O)O)cc([N+](=O)[O-])c2)CC[C@]2(CO2)[C@H]1[C@@]1(C)O[C@@H]1CC=C(C)C [No 33] | < 0.01 | 101 to 1000 | > 1000 | > 1000 | – | – | –
CO[C@@H]1[C@H](OC(=O)NCCCB(O)O)CC[C@]2(CO2)[C@H]1[C@@]1(C)O[C@@H]1CC=C(C)C [No 59] | < 0.01 | > 1000 | > 1000 | > 1000 | – | – | –
CO[C@@H]1[C@H](OC(=O)N2CCOc3c(B(O)O)cccc32)CC[C@]2(CO2)[C@H]1[C@@]1(C)O[C@@H]1CC=C(C)C [No 51] | < 0.01 | < 10 | 101 to 1000 | 101 to 1000 | – | – | –
CO[C@@H]1[C@H](OC(=O)Nc2ccc3c(c2)C(C)OB3O)CC[C@]2(CO2)[C@H]1[C@@]1(C)O[C@@H]1CC=C(C)C (stereo partly drawn) [No 2] | < 0.01 | – | – | – | < 10 | < 10 | < 10
CO[C@@H]1[C@H](OC(=O)Nc2c(F)cccc2B(O)O)CC[C@]2(CO2)[C@H]1[C@@]1(C)O[C@@H]1CC=C(C)C [No 35] | < 0.01 | – | – | – | 101 to 1000 | > 1000 | > 1000
CO[C@@H]1[C@H](OC(=O)Nc2cc(C(=O)O)ccc2B(O)O)CC[C@]2(CO2)[C@H]1[C@@]1(C)O[C@@H]1CC=C(C)C [No 22] | < 0.01 | – | – | – | 101 to 1000 | 101 to 1000 | 101 to 1000
